In patent US6410054B1, “Immediate release eplerenone compositions” (G. D. Searle & Co., priority 1998, dated 2002):

Assays:
Format in all cases: in vivo, humans
[1] = Treatment of hypertension study: safety
Procedure: (§1) The safety and efficacy of a range of doses of eplerenone in the treatment of hypertension relative to placebo were evaluated in a multi-center, randomized, double-blind, placebo-lead-in, parallel group study. […] The primary efficacy variable was the change in cuff diastolic blood pressure (ADBP; sitting) measured at trough plasma levels after eight weeks of double blind treatment. The secondary variables measured were the change in trough cuff systolic blood pressure (ΔSBP; sitting), change in 24 hour mean diastolic blood pressure (ΔDBP), and change in 24 hour mean systolic blood pressure (ΔSBP). The primary and secondary efficacy variables were analyzed to compare BID versus QD dosing regimens for each eplerenone dose group, and both eplerenone and spironolactone versus placebo. Changes in plasma renin and serum aldosterone after eight weeks of dosing were also analyzed as secondary measures of efficacy.
All eplerenone doses lowered cuff diastolic and systolic pressures from baseline after eight weeks of treatment compared to placebo. […] There was, however, a trend toward greater reduction with the BID dosing regimen. […] Over the course of the study, the mean change in heart rate from baseline was minimal in all treatment groups, with the largest mean increase and decrease in heart rate being +2 beats/minute and −1.8 beats/minute, respectively. […] Safety was assessed by comparing the incidence of adverse events, withdrawals, and the results of urinalysis, hematology and biochemistry laboratory tests across the treatment group to the placebo group.

ADME study: safety = details: single 100 mg oral solution
Procedure: The study employed eight healthy male humans. Each subject received a single 100 mg oral dose of a solution of [^14C]eplerenone (specific activity 0.75 μCi/mg). Plasma, saliva, breath, urine and fecal samples were collected at predetermined intervals and analyzed for sample radioactivity and the concentration of eplerenone and its open lactone ring form. Safety was determined on the basis of laboratory tests, vital signs, and the occurrence and types of adverse events.
Blood samples were collected at −0.5 (predose), 0.5, 1, 1.5, 2, 2.5, 3, 4, 6, 8, 12, 16, 24, 36, 48, 72 and 96 hours post dose. […] Individual fecal samples were collected beginning immediately after dosing and continuing through 0800 hours on day 8. In addition, one predose fecal sample was provided. Saliva samples were taken at 0.5 hour predose and at 0.5, 1, 2, 4, 6, 12, and 24 hours postdose. Breath samples were taken at 0.5 hour predose and at 1, 2, 3, 4, 6, 8, 12, 24, 36, 48 and 72 hours postdose.

renin and aldosterone = assay: Treatment of hypertension study: plasma renin and serum aldosterone
Procedure: as §1, with “study. […] Four hundred and seventeen patients were randomized to one of eight treatments: (i) placebo BID; […] (iv) eplerenone 400 mg QD; (v) eplerenone 25 mg BID;” for “study.”, “The primary and secondary efficacy variables were analyzed to compare BID versus QD dosing regimens for each eplerenone dose group, and both eplerenone and spironolactone versus placebo.” left out

[2] = all eplerenone treatment groups

## COC(=O)C1CC2=CC(=O)CCC2(C)C23OC2CC2(C)C(CC[C@@]24CCC(=O)O4)C13 (stereo partly drawn) [eplerenone, methyl hydrogen 9,11α-epoxy-17α-hydroxy-3-oxopregn-4-ene-7α,21-dicarboxylate, γ-lactone]
[1]; 1000 mg
  adverse side effects at the highest dose administered: No adverse side effects
[1]; [2]
  potassium: small but consistent increases
  sodium: decreases
[1]; each eplerenone dosing regimen
  tolerability: well tolerated
[1]; eplerenone treatment groups
  BUN, uric acid levels compared to placebo: increases
  urine pH compared to placebo: decreases
ADME study: safety
  changes in physical examinations, vital signs or clinical laboratory test results: no clinically significant changes
  serious adverse effects: no serious adverse effects
Renin and aldosterone; 25 mg BID
  Plasma Renin Active Mean Change From Baseline: 1.2 mU/L
  Serum Aldosterone Mean Change From Baseline: 7.3 ng/dL
Renin and aldosterone; 50 mg BID
  Plasma Renin Active Mean Change From Baseline: 15.0 mU/L
  Serum Aldosterone Mean Change From Baseline: 10.0 ng/dL
Renin and aldosterone; 50 mg QD
  Plasma Renin Active Mean Change From Baseline: 2.9 mU/L
  Serum Aldosterone Mean Change From Baseline: 6.0 ng/dL
Renin and aldosterone; 100 mg QD
  Plasma Renin Active Mean Change From Baseline: 13.9 mU/L
  Serum Aldosterone Mean Change From Baseline: 10.5 ng/dL
Renin and aldosterone; 200 mg BID
  Plasma Renin Active Mean Change From Baseline: 32.0 mU/L
  Serum Aldosterone Mean Change From Baseline: 32.8 ng/dL
Renin and aldosterone; 400 mg QD
  Plasma Renin Active Mean Change From Baseline: 21.2 mU/L
  Serum Aldosterone Mean Change From Baseline: 19.2 ng/dL
Renin and aldosterone; eight weeks of dosing
  aldosterone compared to placebo: increases
  total and active renin levels: increases
